Results from patent US8586082B2, “Solid orally administerable pharmaceutical dosage forms with rapid active principle release” (Bayer Intellectual Property GmbH, priority 2005, dated 2013).
Converted amounts (≈) assume the structure as drawn.

Experiments:
[1] = Solubility in water of active ingredient (I); assay type: physicochemical; settings: 25° C., crystal modification I
[2] = Bioavailability, comparative study in rats (3 mg/kg); assay type: in vivo; settings: male Wistar rats, suspension, geometric means
Experimental: The bioavailability was investigated by administering 3 mg/kg active ingredient (I) in each case to male Wistar rats: • a) in the form of exemplary formulation 1 (suspended in water) • b) in the form of exemplary formulation 2 (suspended in water) • c) in the form of exemplary formulation 3 (suspended in water) • d) in the form of the micronized crystalline active ingredient in thermodynamically stable crystal modification I (suspended in 0.5% strength aqueous methylhydroxyethylcellulose (proprietary name: Tylose MH 300))

[3] = In vitro release, USP apparatus 2 (paddle), non-sink conditions (supersaturation); assay type: physicochemical; settings: 75 rpm, 900 ml acetate buffer pH 4.5, 37° C., active ingredient dose 20 mg
Experimental: The in vitro release investigations are carried out by USP release method with apparatus 2 (paddle) at a temperature of 37° C. The speed of rotation of the stirrer is 75 rpm (revolutions per minute) in 900 ml of an acetate buffer solution of pH 4.5, which is prepared from 29.9 g of sodium acetate trihydrate and 16.6 ml of glacial acetic acid in 10 l of water.
The investigations in this connection take place under sink or non-sink conditions.
Non-sink conditions: The investigations for examining the supersaturation (increase in solubility) take place without addition of a surfactant and with a dose of 20 mg of active ingredient (I) to be released.
To illustrate the supersaturation behaviour of exemplary formulations 1 to 6 (see below), as comparison the in vitro release (non-sink conditions) of the micronized crystalline active ingredient (I) in the thermodynamically stable crystal modification I and of a rapid-release tablet formulation produced by fluidized bed granulation and comprising micronized crystalline active ingredient (I) in crystal modification I were determined.

[4] = Bioavailability, comparative study in dogs (150 mg/kg); assay type: in vivo; settings: Beagle dogs, crossover, suspension, geometric means

| solubility [1] [µg/mL] | AUC (0-24)norm [2] [kg·h/L] | Cmax, norm [2] [kg/L] | Cmax ([2]; rat, in vivo, oral) [ng/mL] | AUC(0-t) ([2]; rat, in vivo, oral, read-out: AUC (0-24)) [ng·h/mL] | Release ([3]; 15 min) [%] | Release ([3]; 30 min) [%] | Release ([3]; 60 min) [%] | Release ([3]; 90 min) [%] | AUC (0-24)norm [4] [kg·h/L] | Cmax, norm [4] [kg/L] | Cmax ([4]; dog, in vivo, oral) [ng/mL] | AUC(0-t) ([4]; dog, in vivo, oral, read-out: AUC (0-24)) [ng·h/mL] | SMILES |
| --- | --- | --- | --- | --- | --- | --- | --- | --- | --- | --- | --- | --- | --- |
| ~7 (≈ 16.1 µM) |  |  |  |  |  |  |  |  |  |  |  |  | O=C(NC[C@H]1CN(c2ccc(N3CCOCC3=O)cc2)C(=O)O1)c1ccc(Cl)s1 [active ingredient (I), 5-Chloro-N-({(5S)-2-oxo-3-[4-(3-oxo-4-morpholinyl)phenyl]-1,3-oxazolidin-5-yl}methyl)-2-thiophenecarboxamide] |
|  | 0.254 | 0.074 | 222 | 762 | 23 | 34 | 41 | 44 | 0.081 | 0.015 | 2220 | 12200 | O=C(NC[C@H]1CN(c2ccc(N3CCOCC3=O)cc2)C(=O)O1)c1ccc(Cl)s1 [Comparative Formulation 1.1, 5-Chloro-N-({(5S)-2-oxo-3-[4-(3-oxo-4-morpholinyl)phenyl]-1,3-oxazolidin-5-yl}methyl)-2-thiophenecarboxamide] |
